IC50 and Ratio data for seven compounds are collected here from ChEMBL document CHEMBL1124450, “Identification of structural requirements for analogues of atrial natriuretic peptide (ANP) to discriminate between ANP receptor subtypes” (J Med Chem, 1989).

One may read the IC50 as the point on the concentration scale where inhibition reaches its midpoint.

Residues, ends and D or L forms follow the SMILES beside them.

Test [1] is described as follows: Inhibitory activity against non-guanylate cyclase receptor binding site in rabbit lung by using [125I]-ANP-(103-126). Also on record: species or system Oryctolagus cuniculus.
For test [2], the target named is T1, Atrial natriuretic peptide receptor (Homo sapiens, UniProt P20594+P16066+P17342).
T1 sequence (P20594 whole entry): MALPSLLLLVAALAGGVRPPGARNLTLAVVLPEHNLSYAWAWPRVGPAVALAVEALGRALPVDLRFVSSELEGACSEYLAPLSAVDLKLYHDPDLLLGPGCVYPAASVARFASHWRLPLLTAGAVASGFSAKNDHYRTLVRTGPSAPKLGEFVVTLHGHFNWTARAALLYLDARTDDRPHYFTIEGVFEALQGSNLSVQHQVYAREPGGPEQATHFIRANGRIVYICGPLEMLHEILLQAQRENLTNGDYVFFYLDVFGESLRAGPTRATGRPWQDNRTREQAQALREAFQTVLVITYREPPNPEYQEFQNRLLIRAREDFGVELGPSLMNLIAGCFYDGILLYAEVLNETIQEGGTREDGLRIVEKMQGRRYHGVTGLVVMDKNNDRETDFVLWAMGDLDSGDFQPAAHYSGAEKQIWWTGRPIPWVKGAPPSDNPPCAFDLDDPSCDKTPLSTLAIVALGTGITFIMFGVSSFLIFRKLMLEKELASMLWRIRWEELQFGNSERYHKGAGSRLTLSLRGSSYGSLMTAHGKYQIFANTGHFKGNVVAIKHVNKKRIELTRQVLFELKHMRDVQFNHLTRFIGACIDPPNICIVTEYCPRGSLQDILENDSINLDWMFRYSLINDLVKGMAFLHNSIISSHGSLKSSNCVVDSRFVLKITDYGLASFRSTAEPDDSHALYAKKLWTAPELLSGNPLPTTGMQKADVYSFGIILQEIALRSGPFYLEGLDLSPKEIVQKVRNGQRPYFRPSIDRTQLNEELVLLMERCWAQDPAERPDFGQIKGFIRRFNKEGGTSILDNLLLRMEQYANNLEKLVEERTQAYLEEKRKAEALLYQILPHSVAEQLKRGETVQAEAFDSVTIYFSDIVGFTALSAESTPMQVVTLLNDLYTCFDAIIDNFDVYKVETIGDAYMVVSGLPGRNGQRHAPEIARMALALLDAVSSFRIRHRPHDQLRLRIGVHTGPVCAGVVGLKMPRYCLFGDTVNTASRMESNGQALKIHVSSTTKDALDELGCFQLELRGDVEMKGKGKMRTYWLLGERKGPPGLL
T1 sequence (P16066 whole entry): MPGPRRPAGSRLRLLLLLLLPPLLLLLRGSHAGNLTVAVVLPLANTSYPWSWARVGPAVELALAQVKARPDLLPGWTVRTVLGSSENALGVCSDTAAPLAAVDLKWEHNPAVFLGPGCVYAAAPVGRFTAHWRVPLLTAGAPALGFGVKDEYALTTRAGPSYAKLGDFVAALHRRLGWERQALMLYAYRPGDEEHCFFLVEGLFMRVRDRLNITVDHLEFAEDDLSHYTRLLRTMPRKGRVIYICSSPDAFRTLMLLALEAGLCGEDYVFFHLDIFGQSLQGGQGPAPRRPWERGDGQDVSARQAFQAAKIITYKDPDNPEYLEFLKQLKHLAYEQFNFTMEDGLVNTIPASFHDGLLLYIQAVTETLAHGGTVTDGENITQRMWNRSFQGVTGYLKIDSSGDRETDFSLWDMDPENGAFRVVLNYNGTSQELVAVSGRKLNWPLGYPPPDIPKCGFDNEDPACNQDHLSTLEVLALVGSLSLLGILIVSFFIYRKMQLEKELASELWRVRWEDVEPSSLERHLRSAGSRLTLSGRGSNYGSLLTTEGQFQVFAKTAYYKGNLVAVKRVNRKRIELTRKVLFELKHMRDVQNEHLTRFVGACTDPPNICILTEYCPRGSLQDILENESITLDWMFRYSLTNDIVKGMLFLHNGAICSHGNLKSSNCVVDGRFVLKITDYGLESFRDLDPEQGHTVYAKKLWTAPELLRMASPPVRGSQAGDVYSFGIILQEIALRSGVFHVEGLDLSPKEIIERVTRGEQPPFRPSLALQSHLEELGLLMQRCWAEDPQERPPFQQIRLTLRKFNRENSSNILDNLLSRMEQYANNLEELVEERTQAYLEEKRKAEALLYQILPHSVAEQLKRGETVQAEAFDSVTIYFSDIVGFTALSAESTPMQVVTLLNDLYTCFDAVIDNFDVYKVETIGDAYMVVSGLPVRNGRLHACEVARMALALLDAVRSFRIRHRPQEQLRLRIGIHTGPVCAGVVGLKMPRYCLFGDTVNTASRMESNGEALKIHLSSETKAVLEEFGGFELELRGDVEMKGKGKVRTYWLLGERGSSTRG
T1 sequence (P17342 whole entry): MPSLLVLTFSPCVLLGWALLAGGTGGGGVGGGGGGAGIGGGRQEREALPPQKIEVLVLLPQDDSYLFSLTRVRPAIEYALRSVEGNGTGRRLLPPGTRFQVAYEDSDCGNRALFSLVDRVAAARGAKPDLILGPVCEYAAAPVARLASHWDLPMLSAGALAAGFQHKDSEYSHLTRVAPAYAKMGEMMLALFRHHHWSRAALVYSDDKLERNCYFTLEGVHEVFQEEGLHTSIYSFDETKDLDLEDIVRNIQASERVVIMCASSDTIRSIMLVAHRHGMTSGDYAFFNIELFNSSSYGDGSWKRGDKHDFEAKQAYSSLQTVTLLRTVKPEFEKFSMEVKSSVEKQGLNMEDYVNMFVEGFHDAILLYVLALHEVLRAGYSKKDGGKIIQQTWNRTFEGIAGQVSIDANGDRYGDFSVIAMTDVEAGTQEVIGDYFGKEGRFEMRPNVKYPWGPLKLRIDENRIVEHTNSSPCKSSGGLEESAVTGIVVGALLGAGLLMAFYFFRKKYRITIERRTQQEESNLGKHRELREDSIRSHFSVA
Briefly: Inhibitory activity against guanylate cyclase coupled receptor binding site in rabbit lung by using [125I]-ANP-(103-126). The test is classed as protein assay, Oryctolagus cuniculus. The conditions noted are these: target entry is the homologue from another species.

Test [3] can be described thus: Ratio of IC50 of guanylate cyclase coupled receptor binding and non-guanylate cyclase coupled binding.

As for `CC[C@H](C)[C@H](NC(=O)[C@H](CCCN=C(N)N)NC(=O)[C@H](CC(=O)O)NC(=O)[C@@H](NC(=O)[C@H](CCCN=C(N)N)NC(=O)CNC(C)=O)[C@@H](C)CC)C(=O)NCC(N)=O` [GRIDRIG] (Ac-GRIDRIG-NH2), the IC50 in test [1] is 65 nM; in test [2] it was above 100 nM. In test [3], the Ratio was above 1.5.

Take `CC[C@H](C)[C@@H]1NC(=O)[C@H](CCCN=C(N)N)NC(=O)[C@H](CC(=O)O)NC(=O)[C@H]([C@@H](C)CC)NC(=O)[C@H](CCCN=C(N)N)NC(=O)CNC(=O)CNC(=O)[C@H](Cc2ccccc2)NC(=O)[C@@H](NC(=O)[C@H](CO)NC(=O)[C@@H](N)CO)CSSC[C@@H](C(=O)N[C@@H](CC(N)=O)C(=O)N[C@@H](CO)C(=O)O)NC(=O)CNC(=O)[C@H](CC(C)C)NC(=O)CNC(=O)[C@H](CO)NC(=O)[C@H](CCC(N)=O)NC(=O)[C@H](C)NC(=O)CNC1=O` (HELM PEPTIDE1{S.S.C.F.G.G.R.I.D.R.I.G.A.Q.S.G.L.G.C.N.S}$PEPTIDE1,PEPTIDE1,3:R3-19:R3$$$V2.0): the IC50 in test [1] was found to be 0.78 nM; in test [2], 36 nM. Besides, in test [3], the Ratio worked out at 46.

Take `CC[C@H](C)[C@H](NC(=O)[C@H](CCCN=C(N)N)NC(=O)[C@H](CC(=O)O)NC(=O)[C@@H](NC(=O)[C@H](CCCN=C(N)N)NC(=O)CNC(=O)CNC(=O)[C@H](Cc1ccccc1)NC(=O)[C@@H](N)CS)[C@@H](C)CC)C(=O)NCC(N)=O` (H-CFGGRIDRIG-NH2): the IC50 is 0.28 nM in test [1] and above 100 nM in test [2]. The Ratio in test [3] was above 357.

Turning to `CC(C)C[C@H](NC(=O)[C@@H](N)CO)C(=O)N[C@@H](CCCN=C(N)N)C(=O)N[C@@H](CCCN=C(N)N)C(=O)N[C@@H](CO)C(=O)N[C@@H](CO)C(=O)N[C@@H](CS)C(=O)N[C@@H](Cc1ccccc1)C(=O)NCC(=O)NCC(=O)N[C@@H](CCCN=C(N)N)C(=O)O` (H-SLRRSSCFGGR-OH), the IC50 in test [1] and in test [2] was above 100 nM throughout.

Turning to `CC[C@H](C)[C@H](NC(=O)[C@H](CCCN=C(N)N)NC(=O)[C@H](CC(=O)O)NC(=O)[C@@H](NC(=O)[C@H](CCCN=C(N)N)NC(=O)CNC(=O)CNC(=O)[C@H](Cc1ccccc1)NC(=O)[C@@H](N)CO)[C@@H](C)CC)C(=O)NCC(=O)N[C@@H](C)C(=O)N[C@@H](CCC(N)=O)C(=O)N[C@@H](CO)C(=O)NCC(=O)N[C@@H](CC(C)C)C(=O)NCC(=O)N[C@@H](CC(N)=O)C(=O)N[C@@H](CO)C(=O)N[C@@H](Cc1ccccc1)C(=O)N[C@@H](CCCN=C(N)N)C(=O)N[C@@H](Cc1ccc(O)cc1)C(=O)O` (H-SFGGRIDRIGAQSGLGNSFRY-OH), the IC50 was 0.35 nM in test [1] and above 100 nM in test [2]. Besides, the Ratio in test [3] is above 285.

With `CC[C@H](C)[C@@H]1NC(=O)[C@H](CCCN=C(N)N)NC(=O)[C@H](CC(=O)O)NC(=O)[C@H]([C@@H](C)CC)NC(=O)[C@H](CCCN=C(N)N)NC(=O)CNC(=O)[C@@H](NC(=O)[C@H](CO)NC(=O)[C@@H](N)CO)CSSC[C@H](C(=O)N[C@@H](CC(N)=O)C(=O)N[C@@H](CO)C(=O)N[C@@H](Cc2ccccc2)C(=O)N[C@@H](CCCN=C(N)N)C(N)=O)NC(=O)CNC(=O)[C@H](CC(C)C)NC(=O)CNC(=O)[C@H](CO)NC(=O)CNC1=O`, the IC50 in test [1] was 0.1 nM; in test [2] it was above 100 nM. For the same compound, the Ratio in test [3] is above 1000.

Take `CC[C@H](C)[C@@H]1NC(=O)[C@H](CCCN=C(N)N)NC(=O)[C@H](CC(=O)O)NC(=O)[C@H]([C@@H](C)CC)NC(=O)[C@H](CCCN=C(N)N)NC(=O)CNC(=O)CNC(=O)[C@H](Cc2ccccc2)NC(=O)[C@@H](NC(=O)[C@H](CO)NC(=O)[C@H](CO)NC(=O)[C@H](CCCN=C(N)N)NC(=O)[C@H](CCCN=C(N)N)NC(=O)[C@H](CC(C)C)NC(=O)[C@@H](N)CO)CSSC[C@@H](C(N)=O)NC(=O)[C@H](CCC(N)=O)NC(=O)[C@H](C)NC(=O)CNC1=O` (HELM PEPTIDE1{S.L.R.R.S.S.C.F.G.G.R.I.D.R.I.G.A.Q.C.[am]}$PEPTIDE1,PEPTIDE1,7:R3-19:R3$$$V2.0): the values for the IC50 in test [1] and in test [2] were 0.16 nM and 52 nM, respectively. The Ratio in test [3] came to 312.
